# Measurements from EP0908457B1, “3-(1,2-benzisothiazol- and isoxazol-5-Y1)-2,4(1H,3H)-pyrimidinedione or thione and 3-(1,2-benzisothiazol- and isoxazol-5-y1)-4(3H)-pyrimidinone or thione herbicidal agents” (BASF AKTIENGESELLSCHAFT, priority 1997, dated 1999).
# Tests used:
# [1] = system: Oryza sativa, (L.) Tebonnet; test: Rice tolerance to post-transplant applications under flooded paddy conditions (Example 187), ORYSAT (Rice, Tebonnet); conditions: for ORYSAT: herbicidal effect rating 0-9, three to four weeks after treatment; for herbicidal effect rating ORYSAT: rated three to four weeks after treatment; for herbicidal effect rating, ORYSAT: meaning of each grade not given here
# [2] = system: Echinochloa oryzoides (Ard.) Fritsch.; test: Preemergence weed control under flooded paddy conditions, ECHORC (Watergrass (Calif.)); assay type: in vivo; conditions: preemergence weeds, flooded paddy; for ECHORC: herbicidal effect rating 0-9, three to four weeks after treatment; for herbicidal effect rating, ECHORC: rated three to four weeks after treatment; for herbicidal effect rating, ECHORC: meaning of each grade not given here
# [3] = system: Oryza sativa, (L.) Tebonnet; test: Rice tolerance to post-transplant applications under flooded paddy conditions (Example 188), ORYSAT (Rice, Tebonnet); conditions: rated three to four weeks after treatment
# [4] = system: Echinochloa oryzoides (Ard.) Fritsch.; test: Postemergence weed control under flooded paddy conditions, ECHORC (Watergrass (Calif.)); assay type: in vivo; conditions: rated three to four weeks after treatment
# Cyperus iria [5] = test: Postemergence weed control under flooded paddy conditions, CYPIR (Rice Flatsedge); assay type: in vivo; conditions: rated three to four weeks after treatment
# [6] = system: Monochoria vaginalis, Presl.; test: Preemergence weed control under flooded paddy conditions, MOOVA (Monochoria); assay type: in vivo; conditions: preemergence weeds, flooded paddy; for MOOVA: herbicidal effect rating 0-9, three to four weeks after treatment; for herbicidal effect rating, MOOVA: rated three to four weeks after treatment; for herbicidal effect rating, MOOVA: meaning of each grade not given here
# Sagittaria pygmaea, L. [7] = test: Preemergence weed control under flooded paddy conditions, SAGPY (Arrowhead (Pygmaea)); assay type: in vivo; conditions: preemergence weeds, flooded paddy; for SAGPY: herbicidal effect rating 0-9, three to four weeks after treatment; for herbicidal effect rating, SAGPY: rated three to four weeks after treatment; for herbicidal effect rating, SAGPY: meaning of each grade not given here
# Cyperus iria [8] = test: Preemergence weed control under flooded paddy conditions, CYPIR (Rice Flatsedge); assay type: in vivo; conditions: preemergence weeds, flooded paddy; for CYPIR: herbicidal effect rating 0-9, three to four weeks after treatment; for herbicidal effect rating, CYPIR: rated three to four weeks after treatment; for herbicidal effect rating, CYPIR: meaning of each grade not given here
# Sagittaria pygmaea, L. [9] = test: Postemergence weed control under flooded paddy conditions, SAGPY (Arrowhead (Pygmaea)); assay type: in vivo; conditions: rated three to four weeks after treatment
# [10] = system: Cyperus serotinus, Rottb.; test: Preemergence weed control under flooded paddy conditions, CYPSE (Flatsedge); assay type: in vivo; conditions: preemergence weeds; for CYPSE: herbicidal effect rating 0-9, three to four weeks after treatment; for herbicidal effect rating, CYPSE: rated three to four weeks after treatment; for herbicidal effect rating, CYPSE: meaning of each grade not given here
# [11] = system: Monochoria vaginalis, Presl.; test: Postemergence weed control under flooded paddy conditions, MOOVA (Monochoria); assay type: in vivo; conditions: rated three to four weeks after treatment
# [12] = system: Cyperus serotinus, Rottb.; test: Postemergence weed control under flooded paddy conditions, CYPSE (Flatsedge); assay type: in vivo; conditions: rated three to four weeks after treatment
smiles,measurement,setting,value
"CCC(C#N)(CC)c1nsc2ccc(-n3c(=O)cc(C(F)(F)F)n(C)c3=O)cc12 [Example 445, 1,2-Benzisothiazole-3-acetonitrile, 5-[3,6-dihydro-3-methyl-2,6-dioxo-4-(trifluoromethyl)-1(2H)-pyrimidinyl]-alpha,alpha-diethyl-]",ORYSAT,[1]; 0.0320 kg/ha,5.0
same,ORYSAT,[1]; 0.0620 kg/ha,6.5
same,ORYSAT,[1]; 0.1250 kg/ha,7.0
same,ORYSAT,[1]; 0.2500 kg/ha,8.0
same,ECHORC,[2]; 0.0320 kg/ha,8.5
same,ECHORC,[2]; 0.0620 kg/ha,8.5
same,ECHORC,[2]; 0.1250 kg/ha,9.0
same,ECHORC,[2]; 0.2500 kg/ha,9.0
same,"herbicidal effect rating, ORYSAT (rice tolerance)",[3]; Rate 0.0320 kg/ha,3.0
same,"herbicidal effect rating, ORYSAT (rice tolerance)",[3]; Rate 0.0620 kg/ha,6.0
same,"herbicidal effect rating, ORYSAT (rice tolerance)",[3]; Rate 0.1250 kg/ha,7.0
same,"herbicidal effect rating, ORYSAT (rice tolerance)",[3]; Rate 0.2500 kg/ha,7.0
same,"herbicidal effect rating, ECHORC",[4]; Rate 0.0320 kg/ha,4.0
same,"herbicidal effect rating, ECHORC",[4]; Rate 0.0620 kg/ha,7.0
same,"herbicidal effect rating, ECHORC",[4]; Rate 0.1250 kg/ha,9.0
same,"herbicidal effect rating, ECHORC",[4]; Rate 0.2500 kg/ha,9.0
same,"herbicidal effect rating, CYPIR",Cyperus iria [5]; Rate 0.0320 kg/ha,4.0
same,"herbicidal effect rating, CYPIR",Cyperus iria [5]; Rate 0.0620 kg/ha,7.0
same,"herbicidal effect rating, CYPIR",Cyperus iria [5]; Rate 0.1250 kg/ha,9.0
same,"herbicidal effect rating, CYPIR",Cyperus iria [5]; Rate 0.2500 kg/ha,9.0
same,MOOVA,[6]; 0.0320 kg/ha,9.0
same,MOOVA,[6]; 0.0620 kg/ha,9.0
same,MOOVA,[6]; 0.1250 kg/ha,9.0
same,MOOVA,[6]; 0.2500 kg/ha,9.0
same,SAGPY,"Sagittaria pygmaea, L. [7]; 0.0320 kg/ha",4.5
same,SAGPY,"Sagittaria pygmaea, L. [7]; 0.0620 kg/ha",8.0
same,SAGPY,"Sagittaria pygmaea, L. [7]; 0.1250 kg/ha",8.5
same,SAGPY,"Sagittaria pygmaea, L. [7]; 0.2500 kg/ha",9.0
same,CYPIR,Cyperus iria [8]; 0.0320 kg/ha,6.5
same,CYPIR,Cyperus iria [8]; 0.0620 kg/ha,8.0
same,CYPIR,Cyperus iria [8]; 0.1250 kg/ha,9.0
same,CYPIR,Cyperus iria [8]; 0.2500 kg/ha,9.0
same,"herbicidal effect rating, SAGPY","Sagittaria pygmaea, L. [9]; Rate 0.0320 kg/ha",0.0
same,"herbicidal effect rating, SAGPY","Sagittaria pygmaea, L. [9]; Rate 0.0620 kg/ha",0.0
same,"herbicidal effect rating, SAGPY","Sagittaria pygmaea, L. [9]; Rate 0.1250 kg/ha",4.0
same,"herbicidal effect rating, SAGPY","Sagittaria pygmaea, L. [9]; Rate 0.2500 kg/ha",9.0
same,CYPSE,[10]; 0.0320 kg/ha,7.5
same,CYPSE,[10]; 0.0620 kg/ha,8.5
same,CYPSE,[10]; 0.1250 kg/ha,8.0
same,CYPSE,[10]; 0.2500 kg/ha,8.5
same,"herbicidal effect rating, MOOVA",[11]; Rate 0.0320 kg/ha,0.0
same,"herbicidal effect rating, MOOVA",[11]; Rate 0.0620 kg/ha,0.0
same,"herbicidal effect rating, MOOVA",[11]; Rate 0.1250 kg/ha,2.0
same,"herbicidal effect rating, MOOVA",[11]; Rate 0.2500 kg/ha,9.0
same,"herbicidal effect rating, CYPSE",[12]; Rate 0.0320 kg/ha,0.0
same,"herbicidal effect rating, CYPSE",[12]; Rate 0.0620 kg/ha,2.0
same,"herbicidal effect rating, CYPSE",[12]; Rate 0.1250 kg/ha,4.0
same,"herbicidal effect rating, CYPSE",[12]; Rate 0.2500 kg/ha,4.0
"CC(C)Oc1cccc(-c2nsc3ccc(-n4c(=O)cc(C(F)(F)F)n(C)c4=O)cc23)c1 [Example 328, 2,4(1H,3H)-Pyrimidinedione, 3-[3-(m-isopropoxyphenyl)-1,2-benzisothiazol-5-yl]-1-methyl-6-(trifluoromethyl)-]",herbicidal effect rating ORYSAT,[1]; Rate 0.0320 kg/ha,2.0
same,herbicidal effect rating ORYSAT,[1]; Rate 0.0620 kg/ha,3.0
same,herbicidal effect rating ORYSAT,[1]; Rate 0.1250 kg/ha,4.0
same,herbicidal effect rating ORYSAT,[1]; Rate 0.2500 kg/ha,4.5
same,"herbicidal effect rating, ECHORC",[2]; Rate 0.0320 kg/ha,9.0
same,"herbicidal effect rating, ECHORC",[2]; Rate 0.0620 kg/ha,9.0
same,"herbicidal effect rating, ECHORC",[2]; Rate 0.1250 kg/ha,9.0
same,"herbicidal effect rating, ECHORC",[2]; Rate 0.2500 kg/ha,9.0
same,"herbicidal effect rating, ORYSAT (rice tolerance)",[3]; Rate 0.0320 kg/ha,2.0
same,"herbicidal effect rating, ORYSAT (rice tolerance)",[3]; Rate 0.0620 kg/ha,4.0
same,"herbicidal effect rating, ORYSAT (rice tolerance)",[3]; Rate 0.1250 kg/ha,4.0
same,"herbicidal effect rating, ORYSAT (rice tolerance)",[3]; Rate 0.2500 kg/ha,4.0
same,"herbicidal effect rating, ECHORC",[4]; Rate 0.0320 kg/ha,7.0
same,"herbicidal effect rating, ECHORC",[4]; Rate 0.0620 kg/ha,9.0
same,"herbicidal effect rating, ECHORC",[4]; Rate 0.1250 kg/ha,9.0
same,"herbicidal effect rating, ECHORC",[4]; Rate 0.2500 kg/ha,9.0
same,"herbicidal effect rating, CYPIR",Cyperus iria [5]; Rate 0.0320 kg/ha,9.0
same,"herbicidal effect rating, CYPIR",Cyperus iria [5]; Rate 0.0620 kg/ha,9.0
same,"herbicidal effect rating, CYPIR",Cyperus iria [5]; Rate 0.1250 kg/ha,9.0
same,"herbicidal effect rating, CYPIR",Cyperus iria [5]; Rate 0.2500 kg/ha,9.0
same,"herbicidal effect rating, MOOVA",[6]; Rate 0.0320 kg/ha,9.0
same,"herbicidal effect rating, MOOVA",[6]; Rate 0.0620 kg/ha,9.0
same,"herbicidal effect rating, MOOVA",[6]; Rate 0.1250 kg/ha,9.0
same,"herbicidal effect rating, MOOVA",[6]; Rate 0.2500 kg/ha,9.0
same,"herbicidal effect rating, SAGPY","Sagittaria pygmaea, L. [7]; Rate 0.0320 kg/ha",2.5
same,"herbicidal effect rating, SAGPY","Sagittaria pygmaea, L. [7]; Rate 0.0620 kg/ha",3.0
same,"herbicidal effect rating, SAGPY","Sagittaria pygmaea, L. [7]; Rate 0.1250 kg/ha",4.5
same,"herbicidal effect rating, SAGPY","Sagittaria pygmaea, L. [7]; Rate 0.2500 kg/ha",4.5
same,"herbicidal effect rating, CYPIR",Cyperus iria [8]; Rate 0.0320 kg/ha,9.0
same,"herbicidal effect rating, CYPIR",Cyperus iria [8]; Rate 0.0620 kg/ha,9.0
same,"herbicidal effect rating, CYPIR",Cyperus iria [8]; Rate 0.1250 kg/ha,9.0
same,"herbicidal effect rating, CYPIR",Cyperus iria [8]; Rate 0.2500 kg/ha,9.0
same,"herbicidal effect rating, SAGPY","Sagittaria pygmaea, L. [9]; Rate 0.0320 kg/ha",0.0
same,"herbicidal effect rating, SAGPY","Sagittaria pygmaea, L. [9]; Rate 0.0620 kg/ha",0.0
same,"herbicidal effect rating, SAGPY","Sagittaria pygmaea, L. [9]; Rate 0.1250 kg/ha",2.0
same,"herbicidal effect rating, SAGPY","Sagittaria pygmaea, L. [9]; Rate 0.2500 kg/ha",6.0
same,"herbicidal effect rating, CYPSE",[10]; Rate 0.0320 kg/ha,6.0
same,"herbicidal effect rating, CYPSE",[10]; Rate 0.0620 kg/ha,6.0
same,"herbicidal effect rating, CYPSE",[10]; Rate 0.1250 kg/ha,7.5
same,"herbicidal effect rating, CYPSE",[10]; Rate 0.2500 kg/ha,9.0
same,"herbicidal effect rating, MOOVA",[11]; Rate 0.0320 kg/ha,9.0
same,"herbicidal effect rating, MOOVA",[11]; Rate 0.0620 kg/ha,9.0
same,"herbicidal effect rating, MOOVA",[11]; Rate 0.1250 kg/ha,9.0
same,"herbicidal effect rating, MOOVA",[11]; Rate 0.2500 kg/ha,9.0
same,"herbicidal effect rating, CYPSE",[12]; Rate 0.0320 kg/ha,0.0
same,"herbicidal effect rating, CYPSE",[12]; Rate 0.0620 kg/ha,2.0
same,"herbicidal effect rating, CYPSE",[12]; Rate 0.1250 kg/ha,6.0
same,"herbicidal effect rating, CYPSE",[12]; Rate 0.2500 kg/ha,6.0
